Source: patent publication US4933359A, “4(5)-substituted imidazole derivatives as α2 -adrenergic receptor blockers” (Farmos-Yhtyma Oy, priority 1986, dated 1990)

Key:
[1] = molecular target: T1, α2-receptors (mouse vas deferens) (Mus musculus, UniProt Q01338); assay: α2-antagonism in vitro, isolated electrically stimulated mouse vas deferens (pA2 vs detomidine); assay type: cell-based; conditions: antagonist given prior to agonist detomidine
T1 construct: isolated, electrically stimulated mouse vas deferens preparation; from tissue; host or cells: mouse vas deferens
T1 sequence (Q01338 1-465): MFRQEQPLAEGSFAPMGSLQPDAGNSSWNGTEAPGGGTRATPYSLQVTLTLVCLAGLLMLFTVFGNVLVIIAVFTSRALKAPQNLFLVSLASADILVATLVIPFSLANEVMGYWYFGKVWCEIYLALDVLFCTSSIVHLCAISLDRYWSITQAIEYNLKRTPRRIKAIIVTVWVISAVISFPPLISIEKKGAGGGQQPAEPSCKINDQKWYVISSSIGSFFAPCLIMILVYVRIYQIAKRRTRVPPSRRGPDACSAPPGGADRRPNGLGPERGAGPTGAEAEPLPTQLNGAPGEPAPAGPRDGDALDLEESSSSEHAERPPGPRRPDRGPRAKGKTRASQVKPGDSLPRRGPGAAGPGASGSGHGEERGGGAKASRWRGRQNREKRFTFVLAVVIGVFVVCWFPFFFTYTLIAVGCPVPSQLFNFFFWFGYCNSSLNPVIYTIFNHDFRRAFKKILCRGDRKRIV
Method: The α2 -antagonism of these compounds was determined in vitro using the isolated, electrically stimulated mouse vas deferens preparation (Marshall et al., Br. J. Pharmac. 62, 147, 151, 1978). In this model, an α2 -agonist (detomidine) blocks electrically stimulated muscular contractions and the effect of the α2 -antagonist is seen by administering it prior to the agonist and by determining its pA2 value.
Compound mouse vas deferens

[2] = molecular target: T2, α2-receptors of the central nervous system (Rattus norvegicus, UniProt P22909); assay: central α2-blocking effect in vivo: reversal of detomidine-induced mydriasis in anaesthetized rat; conditions: iv, standard dose of detomidine i.v., then increasing i.v. doses of antagonist, read-out: ED50, dose producing a 50 percent reversal of detomidine-induced mydriasis
T2 construct: from tissue; host or cells: living anaesthetized rat, central nervous system
T2 sequence (P22909 1-465): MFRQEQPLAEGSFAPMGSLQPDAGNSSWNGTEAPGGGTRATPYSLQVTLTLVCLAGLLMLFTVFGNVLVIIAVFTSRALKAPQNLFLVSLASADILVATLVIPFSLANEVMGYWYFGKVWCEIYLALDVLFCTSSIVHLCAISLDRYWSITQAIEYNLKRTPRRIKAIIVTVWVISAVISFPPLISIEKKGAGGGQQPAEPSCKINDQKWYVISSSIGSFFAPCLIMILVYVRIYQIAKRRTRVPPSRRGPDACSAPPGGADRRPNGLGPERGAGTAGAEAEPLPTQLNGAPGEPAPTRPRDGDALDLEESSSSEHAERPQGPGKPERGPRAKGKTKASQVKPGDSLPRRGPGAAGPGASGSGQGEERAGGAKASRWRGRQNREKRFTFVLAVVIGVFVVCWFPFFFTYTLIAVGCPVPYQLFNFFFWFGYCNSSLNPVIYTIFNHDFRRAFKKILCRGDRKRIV
Method: The central α2 -blocking effect of the compounds of the invention in vivo was studied. It is known that in the rat α2 -agonists induce dilation of the pupil (mydriasis) and that this effect is transmitted via α2 -receptors of the central nervous system. In an anaesthetized rat, a standard dose of detomidine was administered intravenously. Thereafter increasing doses of the antagonist under test were injected intravenously and the reversal of detomidine-induced mydriasis was observed. The ED50 value of the antagonist, i.e. the dose producing a 50 percent reversal, was determined.

[3] = test system: α2-receptors; conditions: Virtanen et al., 1983; cited from earlier work

| Structure (SMILES) | Kb [1] | further results |
| --- | --- | --- |
| C=C(C)C1(c2cnc[nH]2)Cc2ccccc2C1 [Compound II, 4(5)-(2,3-dihydro-2-isopropenyl-1H-inden-2-yl)imidazole] | 100 nM | – |
| CC(C)C1(c2cnc[nH]2)Cc2ccccc2C1 [Compound III, 4(5)-(2,3-dihydro-2-isopropyl-1H-inden-2-yl)imidazole] | 398 nM | – |
| C=C1c2ccccc2CC1(C)c1cnc[nH]1 (stereo not shown) [Compound V, 4(5)-(2,3-dihydro-2-methyl-1-methylene-1H-inden-2-yl)-imidazole] | – | ED50 [2]: 0.03 mg/kg |
| CC=C1c2ccccc2CC1(C)c1cnc[nH]1 (stereo not shown) [Compound VI, 4(5)-(2,3-dihydro-1-ethylidene-2-methyl-1H-inden-2-yl)-imidazole] | – | ED50 [2]: 0.001 mg/kg |
| Cc1cccc(Cc2c[nH]cn2)c1C [detomidine] | – | α2-receptor stimulation responsible for primary pharmacodynamic effects, e.g. sedation (in words) [3]: ability to stimulate α2 -receptors |
| CC(C)(O)C1(c2cnc[nH]2)Cc2ccccc2C1 [Compound I, 2-[2,3-dihydro-2-[imidazol-4(5)-yl]-1H-inden-2-yl]-2-propanol] | 3980 nM | – |
| C=CC1(c2cnc[nH]2)Cc2ccccc2C1 [Compound IV, 4(5)-(2,3-dihydro-2-vinyl-1H-inden-2-yl)imidazole] | 25.1 nM | – |
